Common to all, as to format: in vivo
Data set [1] deals with White Peach Scale (Pseudaulacaspis pentagona). Kind of data set: Insecticidal effect on white peach scale, sprayed potato tuber (Test Examples 3 and 5). Particulars: 100 ppm liquid chemical, potato tuber with first-instar larvae, fourteen days after the treatment. From the text:
Insecticidal Effect on White Peach Scale (Pseudaulacaspis pentagona)
A preparation containing each compound of the present invention listed in Tables 2 to 4 or each comparative compound as an active ingredient was dispersed in and diluted with water to obtain a 100 ppm liquid chemical. A potato tuber with first-instar larvae of white peach scale as parasites was sprayed with the liquid chemical with a spray gun. Fourteen days after the treatment, the living insects were counted. In the same manner as in Test Example 2, the corrected mortality was calculated and the insecticidal effect was judged.
Insecticidal Effect on White Peach Scale (Pseudaulacaspis pentagona) at a Low Dosage
The same test as in Test Example 3 was carried out except for changing the concentration of the liquid chemical to 30 ppm.

In data set [2] the test system is Greenhouse Whitefly (Trialeuroddes vaporariorum). Kind of data set: Insecticidal effect on greenhouse whitefly, sprayed tomato leaf (Test Examples 2 and 4). To be noted: for Test Example 2: insecticidal effect (corrected mortality): 100 ppm liquid chemical, sprayed tomato leaf, 20 adult whiteflies, four days after the inoculation; for Test Example 4: controlling effect at a low dosage (corrected mortality): 3 ppm liquid chemical, otherwise same as Test Example 2. From the text: Insecticidal Effect on Greenhouse Whitefly (Trialeuroddes vaporariorum)
A preparation containing each compound of the present invention listed in Tables 2 to 4 or each comparative compound as an active ingredient was dispersed in and diluted with water to obtain a 100 ppm liquid chemical. A tomato leaf set in a 20-ml vial with its stalk immersed in water was sprayed with the liquid chemical with a spray gun on a turntable. After air-dryness, the treated leaf was placed in a glass cylinder and inoculated with 20 adult greenhouse whiteflies. After the treatment, the glass cylinder was placed in a greenhouse. Four days after the inoculation, the living insects were counted. The corrected mortality was calculated according to the following equation and the insecticidal effect was judged according to the criterion shown below.
[formula] Criterion for Judgment:
Insecticidal Effect on Greenhouse (Trialeuroddes vaporariorum) at a Low Dosage
The same test as in Test Example 2 was carried out except for changing the concentration of the liquid chemical to 3 ppm.

The test system of data set [3] is Green Peach Aphid (Myzus persicae). Kind of data set: Insecticidal effect on green peach aphid, foliar spray on potted Chinese cabbage (Test Example 1). Particulars: 500 ppm liquid chemical, sprayed on Chinese cabbage stalks and leaves, six days after the spraying. An excerpt:
Insecticidal Effect on Green Peach Aphid (Myzus persicae)
A Chinese cabbage plant was planted in each of plastic pots with a diameter of 8 cm and a height of 8 cm, and green peach aphids were propagated on the plant, after which the parasites in each pot were counted. A preparation containing each compound of the present invention listed in Tables 2 to 4 or each comparative compound as an active ingredient was dispersed in and diluted with water to obtain a 500 ppm liquid chemical. The stalks and leaves of the potted Chinese cabbage plants were sprayed with the liquid chemical and air-dried, and then the pots were stored in a greenhouse. Six days after the spraying, green peach aphids parasitic on each Chinese cabbage plant were counted and the control efficacy was calculated by the following equation, whereby the insecticidal effect was judged according to the criterion shown below. Control efficacy=100−{(T×Ca)/(Ta×C)}×100 • Ta: number of parasites before spraying in treated group, • T: number of parasites after spraying in treated group, • Ca: number of parasites before spraying in untreated group, • C: number of parasites after spraying in untreated group.

Data on 19 molecules can be found in patent publication US8034931B2, “Process for producing substituted aminoquinazolinone derivative, intermediate therefor, and pest control agent” (Nihon Nohyaku Co., Ltd., priority 2003, dated 2011).

With `CCC(=O)N1C(=O)N(N=Cc2cccnc2)Cc2cc(C(F)(C(F)(F)F)C(F)(F)F)ccc21` [compound 9], the “Test Example 3: insecticidal effect (corrected mortality)” value (from here on “Test Example 3: insecticidal effect”) in data set [1] is “A (Corrected mortality 100%)”. In data set [2], the “Test Example 2: insecticidal effect (corrected mortality)” value (“Test Example 2: insecticidal effect” below) is “A (Corrected mortality 100%)”. Further, the “Test Example 1: insecticidal effect (control efficacy)” value (shortened to “Test Example 1: insecticidal effect”) in data set [3] was “A (Control efficacy 100%)”.

In the case of `CS(=O)(=O)N1C(=O)N(N=Cc2cccnc2)Cc2cc(C(F)(C(F)(F)F)C(F)(F)F)ccc21` [compound 22], in data set [1], the “Test Example 3: insecticidal effect” value is listed as “A (Corrected mortality 100%)”. The “Test Example 2: insecticidal effect” value in data set [2] is “A (Corrected mortality 100%)”. In addition, the “Test Example 1: insecticidal effect” value in data set [3] is listed as “A (Control efficacy 100%)”.

Take `N#CCN1C(=O)N(N=Cc2cccnc2)Cc2cc(C(F)(C(F)(F)F)C(F)(F)F)ccc21` [compound 6]: the “Test Example 3: insecticidal effect” value in data set [1] was “A (Corrected mortality 100%)”. Further, in data set [2], the “Test Example 2: insecticidal effect” value is “A (Corrected mortality 100%)”. Further, the “Test Example 1: insecticidal effect” value in data set [3] is on record as “A (Control efficacy 100%)”.

With `O=C(c1ccccc1)N1C(=O)N(N=Cc2cccnc2)Cc2cc(C(F)(C(F)(F)F)C(F)(F)F)ccc21` [compound 24], the “Test Example 3: insecticidal effect” value in data set [1] is recorded as “A (Corrected mortality 100%)”. The “Test Example 2: insecticidal effect” value in data set [2] was “A (Corrected mortality 100%)”. Moreover, the “Test Example 1: insecticidal effect” value in data set [3] is listed as “A (Control efficacy 100%)”.

Regarding `CC(C)OC(=O)N1C(=O)N(N=Cc2cccnc2)Cc2cc(C(F)(C(F)(F)F)C(F)(F)F)ccc21` [compound 19], in data set [1], the “Test Example 3: insecticidal effect” value is reported as “A (Corrected mortality 100%)”. Besides, the “Test Example 2: insecticidal effect” value in data set [2] was “A (Corrected mortality 100%)”. Further, the “Test Example 1: insecticidal effect” value in data set [3] is given as “A (Control efficacy 100%)”.

For `CCOCN1C(=O)N(N=Cc2cccnc2)Cc2cc(C(F)(C(F)(F)F)C(F)(F)F)ccc21` [compound 5], in data set [1], the “Test Example 3: insecticidal effect” value is given as “A (Corrected mortality 100%)”. For the same molecule, the “Test Example 2: insecticidal effect” value in data set [2] was “A (Corrected mortality 100%)”. The “Test Example 1: insecticidal effect” value in data set [3] is given as “A (Control efficacy 100%)”.

As for `CCC(C)OC(=O)N1C(=O)N(N=Cc2cccnc2)Cc2cc(C(F)(C(F)(F)F)C(F)(F)F)ccc21` (centres unmarked) [compound 21], the “Test Example 3: insecticidal effect” value in data set [1] is listed as “A (Corrected mortality 100%)”. Moreover, the “Test Example 2: insecticidal effect” value in data set [2] is “A (Corrected mortality 100%)”. Further, the “Test Example 1: insecticidal effect” value in data set [3] is on record as “A (Control efficacy 100%)”.

As to `CC(=O)N1C(=O)N(N=Cc2cccnc2)Cc2ccccc21` [A, 1-acetyl-3-(3-pyridylmethylideneamino)-3,4-dihydro-2(1H)-quinazolinone, reference compound], the “Test Example 3: insecticidal effect” value in data set [1] is “B (Corrected mortality 99-90%)”. In data set [2], the “Test Example 4: controlling effect at a low dosage (corrected mortality)” value was “C (Corrected mortality 89-80%)” and the “Test Example 2: insecticidal effect” value was “A (Corrected mortality 100%)”. The “Test Example 1: insecticidal effect” value in data set [3] was “A (Control efficacy 100%)”.

As for `CCCCC(=O)N1C(=O)N(N=Cc2cccnc2)Cc2cc(C(F)(C(F)(F)F)C(F)(F)F)ccc21` [compound 12], the “Test Example 3: insecticidal effect” value in data set [1] is reported as “A (Corrected mortality 100%)”. The “Test Example 2: insecticidal effect” value in data set [2] is listed as “A (Corrected mortality 100%)”. Moreover, the “Test Example 1: insecticidal effect” value in data set [3] was “A (Control efficacy 100%)”.

As for `CC(=O)N1C(=O)N(NCc2cccnc2)Cc2cc(Br)ccc21` [B, 1-acetyl-3-(3-pyridylmethylamino)-3,4-dihydro-6-bromo-2(1H)-quinazolinone, reference compound], the “Test Example 3: insecticidal effect” value in data set [1] was “C (Corrected mortality 89-80%)”. For the same molecule, in data set [2], the “Test Example 4: controlling effect at a low dosage (corrected mortality)” value is on record as “D (Corrected mortality 79-50%)” and the “Test Example 2: insecticidal effect” value is on record as “C (Corrected mortality 89-80%)”. Further, in data set [3], the “Test Example 1: insecticidal effect” value is “A (Control efficacy 100%)”.

As for `CCCOC(=O)N1C(=O)N(N=Cc2cccnc2)Cc2cc(C(F)(C(F)(F)F)C(F)(F)F)ccc21` [compound 18], in data set [1], the “Test Example 3: insecticidal effect” value is recorded as “A (Corrected mortality 100%)”. In addition, the “Test Example 2: insecticidal effect” value in data set [2] was “A (Corrected mortality 100%)”. The “Test Example 1: insecticidal effect” value in data set [3] was “A (Control efficacy 100%)”.

For `Cc1cccc(C(=O)N2C(=O)N(N=Cc3cccnc3)Cc3cc(C(F)(C(F)(F)F)C(F)(F)F)ccc32)c1` [compound 30], the “Test Example 3: insecticidal effect” value in data set [1] was “A (Corrected mortality 100%)”. The “Test Example 2: insecticidal effect” value in data set [2] is reported as “A (Corrected mortality 100%)”. In addition, the “Test Example 1: insecticidal effect” value in data set [3] was “A (Control efficacy 100%)”.

Turning to `CCN1C(=O)N(N=Cc2cccnc2)Cc2cc(C(F)(C(F)(F)F)C(F)(F)F)ccc21` [compound 2], the “Test Example 3: insecticidal effect” value in data set [1] is listed as “A (Corrected mortality 100%)”. In addition, the “Test Example 2: insecticidal effect” value in data set [2] was “A (Corrected mortality 100%)”. In addition, the “Test Example 1: insecticidal effect” value in data set [3] is listed as “A (Control efficacy 100%)”.

Regarding `O=C(c1cccc2ccccc12)N1C(=O)N(N=Cc2cccnc2)Cc2cc(C(F)(C(F)(F)F)C(F)(F)F)ccc21` [compound No. 33], the “Test Example 3: insecticidal effect” value in data set [1] is “A (Corrected mortality 100%)”. Also, the “Test Example 2: insecticidal effect” value in data set [2] is “A (Corrected mortality 100%)”. Also, in data set [3], the “Test Example 1: insecticidal effect” value was “A (Control efficacy 100%)”.

For the molecule `COC(=O)N1C(=O)N(N=Cc2cccnc2)Cc2cc(C(F)(C(F)(F)F)C(F)(F)F)ccc21` [compound 16], the “Test Example 3: insecticidal effect” value in data set [1] is “A (Corrected mortality 100%)”. Also, the “Test Example 2: insecticidal effect” value in data set [2] was “A (Corrected mortality 100%)”. For the same molecule, in data set [3], the “Test Example 1: insecticidal effect” value was “A (Control efficacy 100%)”.

For `O=C(c1ccc(F)cc1)N1C(=O)N(N=Cc2cccnc2)Cc2cc(C(F)(C(F)(F)F)C(F)(F)F)ccc21` [compound 28], the “Test Example 3: insecticidal effect” value in data set [1] is given as “A (Corrected mortality 100%)”. Also, the “Test Example 2: insecticidal effect” value in data set [2] is on record as “A (Corrected mortality 100%)”. In addition, the “Test Example 1: insecticidal effect” value in data set [3] was “A (Control efficacy 100%)”.

For `CCC(C)C(=O)N1C(=O)N(N=Cc2cccnc2)Cc2cc(C(F)(C(F)(F)F)C(F)(F)F)ccc21` (centres unmarked) [compound 13], in data set [1], the “Test Example 3: insecticidal effect” value is given as “A (Corrected mortality 100%)”. In addition, the “Test Example 2: insecticidal effect” value in data set [2] was “A (Corrected mortality 100%)”. The “Test Example 1: insecticidal effect” value in data set [3] was “A (Control efficacy 100%)”.

In the case of `CC(C)C(=O)N1C(=O)N(N=Cc2cccnc2)Cc2cc(C(F)(C(F)(F)F)C(F)(F)F)ccc21` [compound 11], the “Test Example 3: insecticidal effect” value in data set [1] was “A (Corrected mortality 100%)”. The “Test Example 2: insecticidal effect” value in data set [2] is given as “A (Corrected mortality 100%)”. Besides, in data set [3], the “Test Example 1: insecticidal effect” value is “A (Control efficacy 100%)”.

`O=C(c1ccccc1C(F)(F)F)N1C(=O)N(N=Cc2cccnc2)Cc2cc(C(F)(C(F)(F)F)C(F)(F)F)ccc21` [compound 25]: in data set [1], the “Test Example 3: insecticidal effect” value is “A (Corrected mortality 100%)”. The “Test Example 2: insecticidal effect” value in data set [2] is “A (Corrected mortality 100%)”. For the same molecule, the “Test Example 1: insecticidal effect” value in data set [3] is recorded as “A (Control efficacy 100%)”.
